Among the data in patent US20130259884A1, “PEPTIDES” ([…] SL, priority 2010, published 2013) are solubility values, retold here.

Where a SMILES comes first, the peptide text is derived from it. Some results are limits rather than exact numbers.

The term solubility denotes the dissolved amount per volume that the medium holds.

The data set in a line: Water solubility of peptides when preparing stock solutions. Format: physicochemical. The following applies: stock solution in sterile distilled water or 100% DMSO; read-out: solubility of peptide (water soluble or water insoluble, dissolved in DMSO). The procedure:
For challenge, peptides were administered as follows: • Individual peptides (soluble). Individual water soluble peptides were dissolved as 10, 5 or 2.5 mg/ml stock solutions in sterile distilled water. Before use, each peptide was diluted in water to 2 mg/ml and 10 μl of this 2 mg/ml mix was added to 990 μl of media. Then 100 μl of this peptide/media mix was added to 100 μl of media containing 350,000 PBMC in an ELISPOT anti-IL-4 coated cell culture plate well for a final peptide concentration of 10 μg/ml. Identically diluted media only was added to the cells and used for the no peptide media control wells (media only). • Individual peptides (DMSO). Individual water insoluble peptides were dissolved in 100% DMSO to a stock concentration of 50 mg/ml. Before use each peptide was diluted in water to 2 mg/ml and then 10 μl of the 2 mg/ml mix was added to 990 μl of cell-culture media. Then 100 μl of this peptide/media mix was added to 100 μl of media containing 350,000 PBMC in an ELISPOT anti-IL-4 coated cell culture plate well for a final peptide concentration of 10 μg/ml. Identically diluted media only was added to the cells and used for the no peptide media control wells (media only). • A combination preparation containing Alt a 1 soluble peptides (33.2, 34.3, 35.4, 35.5, 37.3.1, 37.4.1, L6-5.01, L10-1.01, L10-2.01, L10-3), called Alt a 1 Sol. Each peptide was diluted from water stock to 2 mg/ml in sterile distilled water. Then 10 μl of each peptide required for the combined preparation was mixed and brought up to 1 ml in media. Then 100 μl of this peptide/media mix was added to 100 μl of media containing 350,000 PBMC in an ELISPOT anti-IL-4 coated cell culture plate well for a final concentration of each peptide of 10 μg/ml. Identically diluted media only was used for the no peptide control wells (media only). • A combination preparation containing Alt a 1 DMSO peptides (32.2.1, 38.2.1, 35.2, 35.3, L6-2, L6-3, L6-4, 38.3, 37.2), called Alt a 1 DMSO. Each peptide was diluted from DMSO stock to 2 mg/ml in sterile distilled water. Then 10 μl of each peptide required for the combined preparation was mixed and brought up to 1 ml in media. Then 100 μl of this peptide/media mix is added to 100 μl of media containing 350,000 PBMC in an ELISPOT anti-IL-4 coated cell culture plate well for a final concentration of each peptide of 10 μg/ml. Identically diluted media only was used for the no peptide control wells (media only). • A combination preparation containing non-Alt a 1 soluble peptides (40.2, 41.2, 43.2, 44.2, 46.2, 47.2.1, 56.2, 57.2.1, 60.2, 62.2.1, 67.2, 71.3), called Alt a Other Sol. Each peptide was diluted from water stock to 2 mg/ml in sterile distilled water. Then 10 μl of each peptide required for the combined preparation was mixed and brought up to 1 ml in media, Then 100 μl of this peptide/media mix was added to 100 μl of media containing 350,000 PBMC in an ELISPOT anti-IL-4 coated cell culture plate well for a final concentration of each peptide at 10 μg/ml. Identically diluted media only was used for the no peptide control wells (media only). • A combination preparation containing non-Alt a 1 DMSO peptides (39.2, 42.2, 45.2, 48.2.1, 50.2, 51.2.1, 61.2.1, 66.3.1, 68.2.1, 70.2, 71.2, 72.2), called Alt a Other DMSO. Each peptide was diluted from DMSO stock to 2 mg/ml in sterile distilled water. Then 10 ul of each peptide required for the combined preparation was mixed and brought up to 1 ml in media, Then 100 μl of this peptide/media mix was added to 100 μl of media containing 350,000 PBMC in an ELISPOT anti-IL-4 coated cell culture plate well for a final concentration of each peptide at 10 μg/ml. Identically diluted media only was used for the no peptide control wells (media only).

Turning to `CC[C@H](C)[C@H](NC(=O)[C@@H](NC(=O)[C@@H](NC(=O)[C@H](Cc1ccccc1)NC(=O)[C@H](CCC(N)=O)NC(=O)[C@@H](N)CC(C)C)[C@@H](C)O)[C@@H](C)O)C(=O)N[C@@H](C)C(=O)N[C@@H](CO)C(=O)N[C@@H](CC(C)C)C(=O)N[C@@H](Cc1ccccc1)C(=O)N[C@@H](C)C(=O)N[C@@H](C)C(=O)N[C@@H](C)C(=O)NCC(=O)N[C@@H](CC(C)C)C(=O)O` [Peptide 32.2.1, LQFTTIASLFAAAGL] (H-LQFTTIASLFAAAGL-OH), the solubility was below 2500 µg/mL.
With `CC(C)C[C@H](NC(=O)CNC(=O)[C@H](C)NC(=O)[C@H](C)N)C(=O)N[C@@H](C)C(=O)N[C@@H](C)C(=O)N[C@@H](C)C(=O)N[C@@H](C)C(=O)N1CCC[C@H]1C(=O)N[C@@H](CC(C)C)C(=O)N[C@@H](CCC(=O)O)C(=O)N[C@@H](CO)C(=O)N[C@@H](CCCNC(=N)N)C(=O)N[C@@H](CCC(N)=O)C(=O)N[C@@H](CC(=O)O)C(=O)O` [Peptide 33.2, AAGLAAAAPLESRQD] (H-AAGLAAAAPLESRQD-OH) the figure was above 2500 µg/mL; with `CC[C@H](C)[C@H](NC(=O)[C@H](CCCCN)NC(=O)[C@H](Cc1c[nH]c2ccccc12)NC(=O)[C@@H](NC(=O)[C@H](Cc1ccc(O)cc1)NC(=O)[C@@H](N)CC(=O)O)C(C)C)C(=O)N[C@@H](CO)C(=O)N[C@@H](CCC(=O)O)C(=O)N[C@@H](Cc1ccccc1)C(=O)N[C@@H](Cc1ccc(O)cc1)C(=O)NCC(=O)N[C@@H](CCCNC(=N)N)C(=O)N[C@@H](CCCCN)C(=O)N1CCC[C@H]1C(=O)N[C@@H](CCC(=O)O)C(=O)O` [Peptide 34.3, DYVWKISEFYGRKPE] (H-DYVWKISEFYGRKPE-OH), above 2500 µg/mL; with `CC[C@H](C)[C@H](NC(=O)[C@H](CC(N)=O)NC(=O)[C@H](Cc1ccccc1)NC(=O)CNC(=O)[C@H](CC(C)C)NC(=O)[C@H](CO)NC(=O)[C@H](CC(N)=O)NC(=O)[C@H](Cc1ccc(O)cc1)NC(=O)[C@H](Cc1ccc(O)cc1)NC(=O)[C@@H](NC(=O)CNC(=O)[C@@H](N)CCC(=O)O)[C@@H](C)O)C(=O)N[C@@H](CCCCN)C(=O)N[C@@H](C)C(=O)N[C@H](C(=O)O)[C@@H](C)O` [Peptide 35.2, EGTYYNSLGFNIKAT] (H-EGTYYNSLGFNIKAT-OH), below 2500 µg/mL.
Regarding `CC[C@H](C)[C@H](NC(=O)[C@H](CC(N)=O)NC(=O)[C@H](Cc1ccccc1)NC(=O)CNC(=O)[C@H](CC(C)C)NC(=O)[C@H](CO)NC(=O)[C@H](CC(N)=O)NC(=O)[C@@H](N)Cc1ccc(O)cc1)C(=O)N[C@@H](CCCCN)C(=O)N[C@@H](C)C(=O)N[C@H](C(=O)N[C@@H](CC(N)=O)C(=O)NCC(=O)NCC(=O)N[C@H](C(=O)O)[C@@H](C)O)[C@@H](C)O` [Peptide 35.3, YNSLGFNIKATNGGT] (H-YNSLGFNIKATNGGT-OH), the solubility is below 2500 µg/mL.
As to `CC[C@H](C)[C@H](NC(=O)[C@H](CC(N)=O)NC(=O)[C@H](Cc1ccccc1)NC(=O)CNC(=O)[C@H](CC(C)C)NC(=O)[C@@H](N)CO)C(=O)N[C@@H](CCCCN)C(=O)N[C@@H](C)C(=O)N[C@H](C(=O)N[C@@H](CC(N)=O)C(=O)NCC(=O)NCC(=O)N[C@H](C(=O)N[C@@H](CC(C)C)C(=O)N[C@@H](CC(=O)O)C(=O)O)[C@@H](C)O)[C@@H](C)O` [Peptide 35.4, SLGFNIKATNGGTLD] (H-SLGFNIKATNGGTLD-OH), the solubility is above 2500 µg/mL.
As to `CC[C@H](C)[C@H](NC(=O)[C@H](CC(N)=O)NC(=O)[C@H](Cc1ccccc1)NC(=O)CN)C(=O)N[C@@H](CCCCN)C(=O)N[C@@H](C)C(=O)N[C@H](C(=O)N[C@@H](CC(N)=O)C(=O)NCC(=O)NCC(=O)N[C@H](C(=O)N[C@@H](CC(C)C)C(=O)N[C@@H](CC(=O)O)C(=O)N[C@@H](Cc1ccccc1)C(=O)N[C@H](C(=O)O)[C@@H](C)O)[C@@H](C)O)[C@@H](C)O` [Peptide 35.5, GFNIKATNGGTLDFT] (H-GFNIKATNGGTLDFT-OH), the solubility is above 2500 µg/mL.
For the molecule `CC[C@H](C)[C@H](NC(=O)[C@H](CC(=O)O)NC(=O)[C@H](CC(=O)O)NC(=O)[C@@H](N)CO)C(=O)N[C@H](C(=O)N[C@@H](Cc1ccc(O)cc1)C(=O)N[C@H](C(=O)N[C@@H](C)C(=O)N[C@H](C(=O)N[C@@H](C)C(=O)N[C@H](C(=O)N[C@@H](CC(C)C)C(=O)N1CCC[C@H]1C(=O)N[C@@H](CC(N)=O)C(=O)N[C@@H](Cc1ccc(O)cc1)C(=O)O)[C@@H](C)O)[C@@H](C)O)C(C)C)[C@@H](C)O` [Peptide 37.2, SDDITYVATATLPNY] (H-SDDITYVATATLPNY-OH), the solubility was below 2500 µg/mL.
`CC[C@H](C)[C@H](NC(=O)[C@@H](N)CC(=O)O)C(=O)N[C@H](C(=O)N[C@@H](Cc1ccc(O)cc1)C(=O)N[C@H](C(=O)N[C@@H](C)C(=O)N[C@H](C(=O)N[C@@H](C)C(=O)N[C@H](C(=O)N[C@@H](CC(C)C)C(=O)N1CCC[C@H]1C(=O)N[C@@H](CC(N)=O)C(=O)N[C@@H](Cc1ccc(O)cc1)C(=O)N[C@H](C(=O)N[C@@H](CCCNC(=N)N)C(=O)O)C(C)C)[C@@H](C)O)[C@@H](C)O)C(C)C)[C@@H](C)O` [Peptide 37.3.1, DITYVATATLPNYVR] (H-DITYVATATLPNYVR-OH): the solubility was above 2500 µg/mL.
With `CC(C)C[C@H](NC(=O)[C@@H](NC(=O)[C@H](C)NC(=O)[C@@H](N)[C@@H](C)O)[C@@H](C)O)C(=O)N1CCC[C@H]1C(=O)N[C@@H](CC(N)=O)C(=O)N[C@@H](Cc1ccc(O)cc1)C(=O)N[C@H](C(=O)N[C@@H](CCCNC(=N)N)C(=O)N[C@@H](C)C(=O)NCC(=O)NCC(=O)N[C@@H](CC(N)=O)C(=O)NCC(=O)N1CCC[C@H]1C(=O)O)C(C)C` [Peptide 37.4.1, TATLPNYVRAGGNGP] (H-TATLPNYVRAGGNGP-OH) the figure was above 2500 µg/mL; with `CC[C@H](C)[C@H](NC(=O)[C@H](Cc1ccc(O)cc1)NC(=O)[C@H](C)NC(=O)[C@H](CC(=O)O)NC(=O)[C@H](C)NC(=O)[C@@H](NC(=O)CNC(=O)[C@H](CCC(N)=O)NC(=O)[C@@H](NC(=O)[C@@H](NC(=O)[C@H](Cc1ccccc1)NC(=O)[C@H](CC(=O)O)NC(=O)[C@H](CCCCN)NC(=O)[C@@H]1CCCN1)C(C)C)C(C)C)C(C)C)C(=O)N[C@H](C(=O)O)[C@@H](C)O` [Peptide 38.2.1, PKDFVVQGVADAYIT] (H-PKDFVVQGVADAYIT-OH), below 2500 µg/mL.
As for `CC[C@H](C)[C@H](NC(=O)[C@H](Cc1ccc(O)cc1)NC(=O)[C@H](C)NC(=O)[C@H](CC(=O)O)NC(=O)[C@H](C)NC(=O)[C@@H](N)C(C)C)C(=O)N[C@H](C(=O)N[C@@H](CC(C)C)C(=O)N[C@H](C(=O)N[C@H](C(=O)N[C@@H](CC(C)C)C(=O)N1CCC[C@H]1C(=O)N[C@@H](CCCCN)C(=O)N[C@@H](CO)C(=O)N[C@@H](CO)C(=O)O)[C@@H](C)O)C(C)C)[C@@H](C)O` [Peptide 38.3, VADAYITLVTLPKSS], the solubility is below 2500 µg/mL.
`CC(C)C[C@H](NC(=O)[C@H](CCCNC(=N)N)NC(=O)[C@H](CC(N)=O)NC(=O)[C@@H](N)CC(=O)O)C(=O)N[C@H](C(=O)N[C@@H](CC(N)=O)C(=O)N[C@@H](Cc1c[nH]cn1)C(=O)N[C@@H](Cc1ccccc1)C(=O)N[C@H](C(=O)N[C@@H](CC(N)=O)C(=O)N[C@@H](CCC(=O)O)C(=O)N[C@@H](Cc1ccccc1)C(=O)N[C@@H](CCCCN)C(=O)N[C@@H](CCCNC(=N)N)C(=O)N[C@@H](CCCCN)C(=O)O)[C@@H](C)O)C(C)C` [Peptide 40.2, DNRLVNHFTNEFKRK] (H-DNRLVNHFTNEFKRK-OH; N-terminus and C-terminus assumed): the solubility was above 2500 µg/mL.
